This is an account of results in US6573293B2, “Pyrrole substituted 2-indolinone protein kinase inhibitors” (Sugen, Inc., priority 2000, dated 2003).

Experiment [1] concerns the target T1, GST-Flk1 (Mus musculus, UniProt P35918).
T1 construct: GST-Flk1cd purified from sf9 recombinant baculovirus transformation; host or cells: Sf9 (baculovirus)
Put plainly: GST-FLK-1 bioassay (bio flkGST). The format is biochemical.

In experiment [2] the target is GST-FGFR1 (Homo sapiens, UniProt P11362). Put plainly: FGFR1 bioassay (bio PGFR1). The format is biochemical.
The target in experiment [3] is T2, PDGFR-β (Homo sapiens, UniProt P09619).
T2 construct: host or cells: NIH 3T3
Put plainly: PDGFR bioassay (bio PDGF). The format is biochemical.

Experiment [4] concerns the target T3, EGFR (Homo sapiens, UniProt P00533).
T3 construct: A431 cell lysate (SUGEN, Inc.); host or cells: A431
Put plainly: EGFR bioassay (bio EGF). In kind it is biochemical.

Experiment [5] addresses T3, EGFR. Put plainly: cell EGF assay. The format is cell-based. The essentials: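 Cells expressing the kinase are exposed to compound, then stimulated with activating ligand and lysed. Lysate is captured on substrate-specific antibody ELISA plates and substrate phosphorylation is detected with anti-phosphotyrosine antibody, relative to untreated control cells.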
In experiment [6] the target is T4, HER-2 kinase (Homo sapiens, UniProt P04626).
T4 construct: Use EGFr/HER-2 chimera/3T3-C7 cell line for this assay; It is expressed in mouse NIH 3T3 clone C7 cells; P00533 (Epidermal growth factor receptor)
Put plainly: Cellular HER-2 kinase assay. The format is cell-based. Conditions: read-out: Her2 Kinase IC50.

In experiment [7] the target is T5, HA epitope-tagged full length pyk2 (FL.pyk2-HA) (Homo sapiens, UniProt Q14289).
T5 construct: host or cells: Sf9
Put plainly: PYK2 bioassay. The format is biochemical. Conditions: read-out: bio pyk2 IC50.

For experiment [8], the target named is T6, human cdk2/cyclin A (Homo sapiens, UniProt P24941).
T6 construct: host or cells: Sf9
Put plainly: CDK2/cyclin A scintillation proximity assay (cdk2spa). The format is biochemical. As to conditions: read-out: cdk2spa C50. Background: SPA uses beads or plates that emit light when radiolabelled molecules are held near them.

T5 sequence (Q14289 whole entry): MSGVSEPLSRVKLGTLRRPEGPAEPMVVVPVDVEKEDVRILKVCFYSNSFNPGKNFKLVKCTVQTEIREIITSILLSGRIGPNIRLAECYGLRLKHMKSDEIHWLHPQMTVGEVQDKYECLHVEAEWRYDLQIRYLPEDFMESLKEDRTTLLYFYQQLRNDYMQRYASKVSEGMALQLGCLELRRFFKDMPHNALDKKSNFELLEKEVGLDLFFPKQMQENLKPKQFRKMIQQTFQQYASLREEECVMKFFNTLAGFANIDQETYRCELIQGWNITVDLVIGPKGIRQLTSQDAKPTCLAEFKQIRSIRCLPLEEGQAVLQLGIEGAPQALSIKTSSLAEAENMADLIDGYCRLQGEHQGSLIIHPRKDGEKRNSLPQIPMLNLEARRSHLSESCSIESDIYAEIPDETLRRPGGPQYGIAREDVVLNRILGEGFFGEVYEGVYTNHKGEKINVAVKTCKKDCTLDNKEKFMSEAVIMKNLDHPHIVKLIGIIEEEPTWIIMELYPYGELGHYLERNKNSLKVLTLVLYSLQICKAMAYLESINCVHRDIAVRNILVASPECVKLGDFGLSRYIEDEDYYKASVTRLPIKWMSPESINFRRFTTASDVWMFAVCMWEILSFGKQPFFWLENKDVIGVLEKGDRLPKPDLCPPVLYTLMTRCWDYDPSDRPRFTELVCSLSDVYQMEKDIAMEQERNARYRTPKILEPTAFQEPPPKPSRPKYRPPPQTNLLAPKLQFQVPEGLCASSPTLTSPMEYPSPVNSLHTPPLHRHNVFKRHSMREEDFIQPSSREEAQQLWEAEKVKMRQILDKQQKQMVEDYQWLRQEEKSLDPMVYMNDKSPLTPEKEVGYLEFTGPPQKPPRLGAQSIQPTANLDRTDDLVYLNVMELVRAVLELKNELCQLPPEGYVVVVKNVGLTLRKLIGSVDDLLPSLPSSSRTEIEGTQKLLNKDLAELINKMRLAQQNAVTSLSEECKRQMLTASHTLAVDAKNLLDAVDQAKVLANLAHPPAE
GST-FGFR1, sequence (P11362 22-822): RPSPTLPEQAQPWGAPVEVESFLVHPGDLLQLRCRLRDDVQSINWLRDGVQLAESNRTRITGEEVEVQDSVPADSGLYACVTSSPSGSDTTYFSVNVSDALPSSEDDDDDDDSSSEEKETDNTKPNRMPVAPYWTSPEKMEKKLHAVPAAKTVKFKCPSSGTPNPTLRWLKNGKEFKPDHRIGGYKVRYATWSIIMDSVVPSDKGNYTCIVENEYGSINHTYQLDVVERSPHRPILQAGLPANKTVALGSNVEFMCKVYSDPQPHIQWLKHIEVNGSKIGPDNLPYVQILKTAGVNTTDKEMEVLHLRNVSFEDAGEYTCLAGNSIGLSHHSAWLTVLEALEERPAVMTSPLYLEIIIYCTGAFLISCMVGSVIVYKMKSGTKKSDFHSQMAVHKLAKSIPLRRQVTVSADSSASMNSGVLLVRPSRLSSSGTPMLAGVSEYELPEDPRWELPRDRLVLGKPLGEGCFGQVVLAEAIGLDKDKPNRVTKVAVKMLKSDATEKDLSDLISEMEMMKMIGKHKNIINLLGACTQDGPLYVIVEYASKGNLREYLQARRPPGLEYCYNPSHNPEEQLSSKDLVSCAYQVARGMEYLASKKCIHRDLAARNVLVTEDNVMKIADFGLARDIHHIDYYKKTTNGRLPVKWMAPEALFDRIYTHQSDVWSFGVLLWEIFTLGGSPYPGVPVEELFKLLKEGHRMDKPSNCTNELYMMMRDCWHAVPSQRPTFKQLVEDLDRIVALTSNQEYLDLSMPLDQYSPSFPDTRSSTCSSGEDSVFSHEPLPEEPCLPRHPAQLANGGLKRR
T3 sequence (P00533 25-1210): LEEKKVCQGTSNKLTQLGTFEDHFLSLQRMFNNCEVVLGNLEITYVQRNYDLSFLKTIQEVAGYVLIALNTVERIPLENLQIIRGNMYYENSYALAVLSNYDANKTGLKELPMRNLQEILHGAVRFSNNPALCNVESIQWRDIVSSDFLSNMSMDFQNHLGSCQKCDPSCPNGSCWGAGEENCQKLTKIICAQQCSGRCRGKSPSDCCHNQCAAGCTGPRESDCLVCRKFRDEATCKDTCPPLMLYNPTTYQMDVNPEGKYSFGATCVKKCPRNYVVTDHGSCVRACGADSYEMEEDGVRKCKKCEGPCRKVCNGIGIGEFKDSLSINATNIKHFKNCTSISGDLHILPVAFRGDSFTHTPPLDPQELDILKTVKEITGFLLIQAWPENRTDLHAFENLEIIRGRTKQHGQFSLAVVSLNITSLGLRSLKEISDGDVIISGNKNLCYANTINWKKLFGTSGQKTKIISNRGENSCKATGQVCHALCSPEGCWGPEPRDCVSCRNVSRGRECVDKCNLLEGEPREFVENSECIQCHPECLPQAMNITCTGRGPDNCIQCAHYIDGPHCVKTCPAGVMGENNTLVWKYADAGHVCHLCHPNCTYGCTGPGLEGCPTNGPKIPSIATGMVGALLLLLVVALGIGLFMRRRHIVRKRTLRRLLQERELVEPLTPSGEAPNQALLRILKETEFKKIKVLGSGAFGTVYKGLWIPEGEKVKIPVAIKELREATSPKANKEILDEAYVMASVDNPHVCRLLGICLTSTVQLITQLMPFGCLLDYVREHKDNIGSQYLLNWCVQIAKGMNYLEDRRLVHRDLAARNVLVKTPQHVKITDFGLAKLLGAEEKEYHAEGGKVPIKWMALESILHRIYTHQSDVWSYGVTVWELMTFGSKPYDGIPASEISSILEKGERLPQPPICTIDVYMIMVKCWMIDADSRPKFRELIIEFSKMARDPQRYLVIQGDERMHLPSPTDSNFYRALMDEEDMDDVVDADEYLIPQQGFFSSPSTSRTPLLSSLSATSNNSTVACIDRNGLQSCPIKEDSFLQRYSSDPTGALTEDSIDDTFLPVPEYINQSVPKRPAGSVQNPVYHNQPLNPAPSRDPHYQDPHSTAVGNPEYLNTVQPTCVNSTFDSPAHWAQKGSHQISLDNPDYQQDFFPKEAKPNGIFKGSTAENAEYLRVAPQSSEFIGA
T2 sequence (P09619 33-1106): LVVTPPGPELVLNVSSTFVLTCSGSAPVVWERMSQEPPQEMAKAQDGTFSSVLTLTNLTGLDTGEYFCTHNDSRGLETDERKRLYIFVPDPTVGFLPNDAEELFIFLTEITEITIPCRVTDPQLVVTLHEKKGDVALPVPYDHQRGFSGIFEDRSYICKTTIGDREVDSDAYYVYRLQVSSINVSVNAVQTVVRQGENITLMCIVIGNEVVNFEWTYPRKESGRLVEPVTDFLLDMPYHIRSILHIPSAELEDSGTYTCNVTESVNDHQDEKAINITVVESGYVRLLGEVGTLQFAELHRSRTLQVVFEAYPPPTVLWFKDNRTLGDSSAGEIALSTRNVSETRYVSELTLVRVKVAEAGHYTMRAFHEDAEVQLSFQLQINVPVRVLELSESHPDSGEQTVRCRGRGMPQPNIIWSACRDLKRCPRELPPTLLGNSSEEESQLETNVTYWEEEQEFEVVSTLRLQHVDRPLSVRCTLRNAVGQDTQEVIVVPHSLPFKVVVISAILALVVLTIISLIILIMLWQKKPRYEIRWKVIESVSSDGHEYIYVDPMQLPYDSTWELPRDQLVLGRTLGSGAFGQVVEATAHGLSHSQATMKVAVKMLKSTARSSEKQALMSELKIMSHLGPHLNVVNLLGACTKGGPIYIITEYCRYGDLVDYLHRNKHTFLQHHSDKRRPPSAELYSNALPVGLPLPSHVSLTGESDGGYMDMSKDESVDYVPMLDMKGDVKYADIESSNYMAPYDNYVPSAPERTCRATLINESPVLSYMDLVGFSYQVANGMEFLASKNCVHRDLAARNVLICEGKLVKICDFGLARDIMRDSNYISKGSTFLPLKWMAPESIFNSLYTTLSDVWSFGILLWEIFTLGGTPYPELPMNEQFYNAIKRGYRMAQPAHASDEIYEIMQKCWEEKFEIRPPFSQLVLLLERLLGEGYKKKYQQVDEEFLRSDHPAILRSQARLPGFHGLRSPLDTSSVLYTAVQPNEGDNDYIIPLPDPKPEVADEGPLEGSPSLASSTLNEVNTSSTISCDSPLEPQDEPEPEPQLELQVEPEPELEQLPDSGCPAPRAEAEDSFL
T4 sequence (P04626 720-987 limits assumed): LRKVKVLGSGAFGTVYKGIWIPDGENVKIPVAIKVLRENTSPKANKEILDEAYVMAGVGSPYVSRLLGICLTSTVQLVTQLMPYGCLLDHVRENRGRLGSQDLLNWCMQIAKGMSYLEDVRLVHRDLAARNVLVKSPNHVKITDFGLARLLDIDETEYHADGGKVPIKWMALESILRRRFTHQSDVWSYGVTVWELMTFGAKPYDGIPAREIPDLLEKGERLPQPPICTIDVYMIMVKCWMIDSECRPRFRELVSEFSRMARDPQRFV
T1 sequence (P35918 784-1345 limits assumed): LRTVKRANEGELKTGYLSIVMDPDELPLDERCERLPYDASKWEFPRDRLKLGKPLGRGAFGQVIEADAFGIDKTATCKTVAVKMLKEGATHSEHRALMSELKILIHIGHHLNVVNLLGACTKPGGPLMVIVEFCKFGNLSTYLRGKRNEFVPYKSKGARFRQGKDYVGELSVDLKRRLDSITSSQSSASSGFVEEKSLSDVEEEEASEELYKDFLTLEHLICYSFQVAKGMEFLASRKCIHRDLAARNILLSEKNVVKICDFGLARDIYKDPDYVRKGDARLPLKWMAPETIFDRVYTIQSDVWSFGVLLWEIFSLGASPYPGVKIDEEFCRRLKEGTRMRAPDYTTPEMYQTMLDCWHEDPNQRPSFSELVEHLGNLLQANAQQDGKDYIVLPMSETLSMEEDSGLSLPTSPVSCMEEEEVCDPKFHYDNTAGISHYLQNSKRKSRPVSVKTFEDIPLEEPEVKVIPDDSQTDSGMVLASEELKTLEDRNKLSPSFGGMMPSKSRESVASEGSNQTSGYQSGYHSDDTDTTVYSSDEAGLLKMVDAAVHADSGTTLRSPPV

With `Cc1[nH]c(/C=C2\C(=O)Nc3ccc(Br)cc32)c(C)c1C(=O)NCCN(C)C` [Example 48, 5-(5-Bromo-2-oxo-1,2-dihydroindol-3-ylidenemethyl)-2,4-dimethyl-1H-pyrrole-3-carboxylic acid (2-dimethylamino-ethyl)amide], the IC50 in experiment [1] is 0.006 µM; in experiment [2] it was 0.3 µM; in experiment [3], below 0.78 µM; in experiment [4], 17.9 µM; in experiment [5] it was 21.6 µM; in experiment [6], 7.93 µM. For the same compound, in experiment [7], the IC50 is 0.09 µM.

For the compound `CCN(CC)CCCNC(=O)c1c(C)[nH]c(/C=C2\C(=O)Nc3ccc(Br)cc32)c1C` [Example 70, 5-(5-Bromo-2-oxo-1,2-dihydroindol-3-ylidenemethyl)-2,4-dimethyl-1H-pyrrole-3-carboxylic acid (3-diethylaminopropyl)amide], the IC50 in experiment [1] stood at 0.09 µM; in experiment [2], 1.5 µM; in experiment [3], 0.003 µM; in experiment [4], 10.6 µM; in experiment [5], 6.42 µM; in experiment [6], 7.99 µM. The IC50 in experiment [8] amounted to 12.6 µM; in experiment [7] it was 0.63 µM.

Regarding `CCN(CC)CCCNC(=O)c1c(C)[nH]c(/C=C2\C(=O)Nc3ccc(Br)cc32)c1-c1ccccc1` [Example 47, 5-(5-Bromo-2-oxo-1,2-dihydroindol-3-ylidenemethyl)-2-methyl-4-phenyl-1H-pyrrole-3-carboxylic acid (3-diethylaminopropyl)amide], the IC50 in experiment [1] is 0.08 µM; in experiment [2], 1.56 µM; in experiment [3], 0.06 µM; in experiment [4], 11.4 µM; in experiment [5] it was 41.5 µM; in experiment [6], 8.4 µM. In experiment [7], the IC50 is 1.05 µM.

For the compound `CNS(=O)(=O)c1ccc2c(c1)C(=Cc1[nH]cc(C(=O)O)c1C)C(=O)N2` [Example 115, 4-Methyl-5-(5-methylsulfamoyl-2-oxo-1,2-dihydro-indol-3-ylidenemethyl)-1H-pyrrole-3-carboxylic acid], the IC50 in experiment [4] is above 100 µM; in experiment [8] it was 0.006 µM.

For `Cc1[nH]c(/C=C2\C(=O)Nc3ccc(S(=O)(=O)Nc4cccc(Cl)c4)cc32)c(C)c1C(=O)NCCN1CCCC1` [Example 83, 5-[5-(3-Chloro-phenylsulfamoyl)-2-oxo-1,2-dihydroindol-3-ylidenemethyl]-2,4-dimethyl-1H-pyrrole-3-carboxylic acid (2-pyrrolidin-1-yl-ethyl)amide], the IC50 in experiment [1] was found to be 0.34 µM; in experiment [2], 0.41 µM; in experiment [3], 9.46 µM; in experiment [4], 2.18 µM; in experiment [6], 86.9 µM; in experiment [7], 0.008 µM.

In the case of `CCOC(=O)CNC(=O)c1c[nH]c(/C=C2\C(=O)Nc3ccc(S(=O)(=O)NC)cc32)c1C` [Example 117, {[4-Methyl-5-(5-methylsulfamoyl-2-oxo-1,2-dihydro-indol-3-ylidenemethyl)-1H-pyrrole-3-carbonyl]-amino}-acetic acid ethyl ester], the IC50 in experiment [1] amounted to 0.91 µM; in experiment [3] it was 12.9 µM; in experiment [8], 0.006 µM.

Consider `CCOC(=O)CNC(=O)c1c[nH]c(C=C2C(=O)Nc3ccc(S(=O)(=O)NC)c(C)c32)c1C` [Example 116, {[4-Methyl-5-(4-methyl-5-methylsulfamoyl-2-oxo-1,2-dihydro-indol-3-ylidenemethyl)-1H-pyrrole-3-carbonyl]-amino}-acetic acid ethyl ester], for which the values for the IC50 in experiment [4] and in experiment [8] were above 100 µM and below 0.0005 µM, respectively.

Regarding `Cc1[nH]c(/C=C2\C(=O)Nc3ccc(S(=O)(=O)Nc4cccnc4)cc32)c(C)c1C(=O)NCCN1CCCC1` [Example 84, 2,4-Dimethyl-5-[2-oxo-5-(pyridin-3-ylsulfamoyl)-1,2-dihydroindol-3-ylidenemethyl]-1H-pyrrole-3-carboxylic acid (2-pyrrolidin-1-yl-ethyl)amide], the IC50 in experiment [1] amounted to 1.38 µM; in experiment [3], 12.5 µM; in experiment [4] it was 67.2 µM; in experiment [6], 5.86 µM; in experiment [7], 0.006 µM.

For the compound `Cc1[nH]c(/C=C2\C(=O)Nc3ccc(S(=O)(=O)N(C)C)cc32)c(C)c1C(=O)NCCN1CCCC1` [Example 82, 5-(5-Dimethylsulfamoyl-2-oxo-1,2-dihydroindol-3-ylidenemethyl)-2,4-dimethyl-1H-pyrrole-3-carboxylic acid (2-pyrrolidin-1-yl-ethyl)amide], the IC50 in experiment [1] came to 2.03 µM; in experiment [2] it was 7.69 µM; in experiment [3], 6.88 µM; in experiment [7] it was 0.31 µM.

In the case of `CCN(CC)CCNC(=O)c1c(C)[nH]c(/C=C2\C(=O)Nc3ccc(S(=O)(=O)Nc4cccc(Cl)c4)cc32)c1C` [Example 88, 5-[5-(3-Chloro-phenylsulfamoyl)-2-oxo-1,2-dihydroindol-3-ylidenemethyl]-2,4-dimethyl-1H-pyrrole-3-carboxylic acid (2-diethylaminoethyl)amide], the IC50 in experiment [1] was 0.35 µM; in experiment [2], 1.18 µM; in experiment [3], 8.06 µM; in experiment [4] it was 2.36 µM; in experiment [6], above 100 µM; in experiment [7], 0.09 µM.

Turning to `Cc1cc(C(=O)O)[nH]c1/C=C1\C(=O)Nc2ccccc21` [Example 1, 4-Methyl-5-(2-oxo-1,2-dihydroindol-3-ylidenemethyl)-1H-pyrrole-2-carboxylic acid], the IC50 was 57.7 µM in experiment [1]; 15.2 µM in experiment [2]; above 100 µM in experiment [3]; above 100 µM in experiment [4]; above 100 µM in experiment [5]; above 100 µM in experiment [7].

For the compound `CNS(=O)(=O)c1ccc2c(c1)/C(=C/c1[nH]cc(C(=O)N3CCCCC3)c1C)C(=O)N2` [Example 119, 3-[3-Methyl-4-(piperidine-1-carbonyl)-1H-pyrrol-2-ylmethylene]-2-oxo-2,3-dihydro-1H-indole-5-sulfonic acid methylamide], the IC50 in experiment [1] is 1.38 µM; in experiment [3], 61.6 µM; in experiment [4] it was above 100 µM; in experiment [6] it was above 100 µM; in experiment [8] it was below 0.0005 µM.

Regarding `COC(=O)c1cc(C)c(/C=C2\C(=O)Nc3ccccc32)[nH]1` [Example 3, 4-Methyl-5-(2-oxo-1,2-dihydroindol-3-ylidenemethyl)-1H-pyrrole-2-carboxylic acid methyl ester], the IC50 was 9.85 µM in experiment [1]; 9.62 µM in experiment [2]; above 100 µM in experiment [3]; above 100 µM in experiment [4]; above 100 µM in experiment [5]; above 100 µM in experiment [7].

As for `CCN(CC)CCNC(=O)c1[nH]c(/C=C2\C(=O)Nc3ccc(Br)cc32)c2c1CCCC2` [Example 17, 3-(5-Bromo-2-oxo-1,2-dihydroindol-3-ylidenemethyl)-4,5,6,7-tetrahydro-2H-isoindole-1-carboxylic acid (2-diethylaminoethyl)amide], the IC50 was determined as 8.25 µM in experiment [1]; 2.47 µM in experiment [2]; 94.4 µM in experiment [3]; 0.83 µM in experiment [4]; 11.5 µM in experiment [5]; 15.9 µM in experiment [6]. The IC50 in experiment [8] was above 10 µM.

As for `CCN(CC)CCNC(=O)c1c(C)[nH]c(/C=C2\C(=O)Nc3ccc(S(=O)(=O)N(C)C)cc32)c1C` [Example 87, 5-(5-Dimethylsulfamoyl-2-oxo-1,2-dihydroindol-3-ylidenemethyl)-2,4-dimethyl-1H-pyrrole-3-carboxylic acid (2-diethylaminoethyl)amide], the IC50 in experiment [1] was found to be 3.27 µM; in experiment [2], 7.56 µM; in experiment [3] it was 6.46 µM; in experiment [6] it was 9.1 µM; in experiment [7], 0.17 µM.

On to `Cc1[nH]c(/C=C2\C(=O)Nc3ccc(S(=O)(=O)Nc4ccccc4)cc32)c(C)c1C(=O)N1CCN(C)CC1` [Example 86, 3-[3,5-Dimethyl-4-(4-methyl-piperazine-1-carbonyl)-1H-pyrrol-2-ylmethylene]-2-oxo-2,3-dihydro-1H-indole-5-sulfonic acid phenylamide], for which the IC50 amounted to 1.45 µM in experiment [1]; 1.3 µM in experiment [2]; 19.6 µM in experiment [3]; 41.8 µM in experiment [4]; 3.58 µM in experiment [7].

As to `CNS(=O)(=O)c1ccc2c(c1)C(=Cc1[nH]cc(C(=O)NCC(=O)O)c1C)C(=O)N2` [Example 118, {[4-Methyl-5-(5-methylsulfamoyl-2-oxo-1,2-dihydro-indol-3-ylidenemethyl)-1H-pyrrole-3-carbonyl]-amino}-acetic acid], the IC50 in experiment [4] was above 100 µM; in experiment [8] it was 0.002 µM.

Consider `CCN(CC)CCNC(=O)c1c(C)[nH]c(/C=C2\C(=O)Nc3ccc(Br)cc32)c1C` [Example 51, 5-(5-Bromo-2-oxo-1,2-dihydroindol-3-ylidenemethyl)-2,4-dimethyl-1H-pyrrole-3-carboxylic acid (2-diethylaminoethyl)amide], for which the IC50 in experiment [2] was determined as 1.66 µM; in experiment [3], 0.01 µM; in experiment [4], 18.1 µM; in experiment [5] it was 21.6 µM; in experiment [6], 23.2 µM; in experiment [8] it was 16.7 µM. For the same compound, the IC50 in experiment [7] was determined as 0.35 µM.
